Legend:
mouse C57BL/6J [1] = assay: Multiple oral dose test of YIT 12355 to mouse given indigestible saccharide; format: in vivo; conditions: for Total cell count: DAPI counting method; for Cell count, A. hadrus: quantitative PCR, multiple oral dose; for Occupancy: cell count of YIT 12355/total cell count ×100; for Detected count: mice with A. hadrus detected / mice in group
Method: Mice were acclimatized and raised with F2 feed (manufactured by Funabashi Farm Co., Ltd.) for 1 week and then divided into 6 groups such that the average body weight was almost equal among these groups. Then, a control diet (Table 7) was administered thereto for 1 week and replaced with purified feed containing an indigestible material, which was then administered thereto for 2 weeks. A live cell suspension of YIT 12355 was orally administered twice a week a total of 4 times using a probe. At the final day of the test, each mouse was dissected, and the cecal and colonic contents were recovered and examined for an organic acid concentration. Also, the cell count of YIT 12355 in the intestinal tract contents was measured by quantitative PCR, while change in the whole intestinal flora was examined by use of PCR-DGGE (denaturing gradient gel electrophoresis). • Animal used: mouse C57BL/6J (4 weeks old; CLEA Japan, Inc.) • Test period: 3 weeks • Indigestible saccharide used: lactitol and maltitol • Dose of indigestible saccharide: 5% (w/w) • Administered bacterial strain: YIT 12355 • Dose of bacterium: live cell dose: 3.9 to 6.9×10^8 cfu/mouse (administration of a suspension in physiological saline using a probe). Total cell count including dead cells: […] cfu/mouse • Group configuration: 6 groups (5 mice/group) At the 2nd week of administration of the test feed, each mouse was anesthetized with diethyl ether and euthanized by cervical dislocation. After abdominal section, cecal tissues and colonic tissues were excised to recover their contents. The cecal and colonic contents were diluted 10-fold with PBS and subjected to DNA extraction. DNA was extracted by the bead-phenol method from the 10-fold diluted solution of the intestinal tract contents. Specifically, 0.3 g of glass beads (diameter: 0.1 mm), 300 μL of a Tris-SDS solution (a mixed solution of 250 mL of 200 mM Tris-HCl, 80 mM EDTA, pH 9.0, and 50 mL of 10% SDS) and 500 μL of TE saturated phenol were added to 200 μL of the diluted solution of the intestinal tract contents, and the mixture was vigorously shaken for 30 seconds using FASTPREP FP120 cell disruptive equipment (power level: 5.0). After centrifugation at 15,000 rpm for 5 minutes, 400 μL of a phenol/chloroform/isoamyl alcohol (25:24:1) solution was added to 400 μL of the supernatant, and the mixture was shaken for 45 seconds using FASTPREP FP120 cell disruptive equipment (power level: 4.0). After centrifugation at 15,000 rpm for 5 minutes, 25 μL of 3 M sodium acetate (pH 5.4) and 250 μL of isopropanol were added to 250 μL of the supernatant and mixed therewith. After centrifugation at 15,000 rpm for 5 minutes, the supernatant was removed, and 500 μL of 70% ethanol was added thereto, followed by centrifugation again at 15,000 rpm for 5 minutes. The supernatant was removed, and the pellets were dried and dissolved in 1.0 mL of a TE buffer. The obtained DNA solution was diluted 10-fold with purified water to prepare a template DNA solution. For quantitative PCR, 7500 Real-Time PCR System (manufactured by Life Technologies Corp.) was used. The total volume of the reaction solution was set to 20 μL, and SYBR Premix Ex Taq II (Takara Bio Inc.) containing 1.0 μM each of primers, and the template DNA solution were mixed and then subjected to quantitative PCR. The reaction conditions involved heating at 95° C. for 2 minutes, followed by 40 repetitive cycles each involving reactions at 95° C. for 20 seconds, 55° C. for 20 seconds and 72° C. for 50 seconds, and subsequent reaction at 72° C. for 3 minutes. For subsequent Tm value analysis, after reaction at 60° C. for 1 minute, the temperature was elevated at a temperature gradient of 0.2° C./sec to 95° C. during which the fluorescence of SYBR Green I was measured to measure the dissociation temperature (Tm) of the double strand of the amplification product. […]

mouse C57BL/6J [2] = assay: Single oral dose test of YIT 12355 to mouse given indigestible saccharide; format: in vivo; conditions: cecum, single oral dose
Method: Mice were acclimatized and raised with F2 feed for 1 week and then divided into 4 groups such that the average body weight was almost equal among these groups. A control diet (Table 12) was administered thereto for 1 week. Then, the control diet was administered to the control group (−/− group) and the AH/− group for 2 weeks while purified feed containing maltitol (MAL-containing diet) was administered to the −/MAL group and the AH/MAL group for 2 weeks. A live cell suspension of YIT 12355 was administered at a single dose using a probe after the administration of the control diet for 1 week. At the final day of the test, each mouse was dissected, and the cecal contents were recovered. The cecal contents were subjected to the cell count measurement of YIT 12355. • Test material: Maltitol (5% mixed feed administration) • Administered bacterial strain: YIT 12355 • Animal species: Mouse C57BL/6J (4 weeks old; CLEA Japan, Inc.) • Group configuration: 7 mice×4 groups The bacterial solution (viable count: 3.1×10^9 cfu/mL, total cell count: 1.9×10^10 cells/mL) prepared in the preceding paragraph 2) was orally administered at a single dose of 0.2 mL (viable count: 6.2×10^8 cfu/mouse, total cell count: 3.8×10^9 cells/mouse) to each mouse using a probe. To the control group and the −/MAL group, 0.2 mL of physiological saline was administered instead of the bacterial solution. […] Then, the cecal contents were recovered. The cecal contents were diluted 10-fold with PBS and subjected to DNA extraction. DNA was extracted by the bead-phenol method described in the paragraph 4)a) of Example 5 from the 10-fold diluted solution of the intestinal tract contents. The cell count of YIT 12355 was measured by quantitative PCR using the obtained DNA as a template and the bacterial species-specific primers described in the paragraph 4)a) of Example 5. After fixation of a portion of the 10-fold diluted solution of the intestinal tract contents in a 4% solution of paraformaldehyde in PBS, the total cell count was measured by the DAPI counting method. The cell count of YIT 12355 was divided by the total cell count to calculate an occupancy (%). (Occupancy of YIT 12355) (%)=(Cell count of YIT 12355/Total cell count)×100 (Expression 5)

[3] = Turbidity (OD660) after anaerobic culture of bacterial strains in PYGA, PYSA or PYXA medium
Method: (§1) A frozen stock solution of each bacterial strain (a 10% (w/v) skim milk-2% sodium glutamate solution in which bacterial cells were suspended) (cell count: 2.0 to 5.5×10^10 cells/mL) was thawed, and the solution was inoculated at 1% to 4 mL of a PY liquid medium supplemented with 33 mM sodium acetate and 0.5 (w/v) % glucose (PYGA medium), followed by anaerobic culture at 37° C. for 24 hours. After the culture, the culture solution was inoculated at 1% to a fresh PYGA medium, followed by anaerobic culture at 37° C. for 24 hours. After the culture, the turbidity (OD660) of the culture solution was measured. Then, the culture solution was inoculated at 1% to a PY medium containing 0.5 (w/v) % L-sorbose or D-xylitol and 33 mM sodium acetate (the medium containing L-sorbose: PYSA, and the medium containing D-xylitol: PYXA), followed by anaerobic culture at 37° C. for 24 hours. Then, the turbidity (OD660) was measured.

[4] = Production of butyrate by each bacterial strain from L-sorbose and D-xylitol (ion-exclusion HPLC); conditions: 24 hours, minus PYA blank
Method: as §1
After the completion of the culture, the organic acid concentration in the culture solution was quantified by ion-exclusion HPLC. In this operation, a culture solution in a PY medium supplemented with sodium acetate but without L-sorbose or D-xylitol (PYA medium) was used as a blank.
(HPLC Analysis Conditions) • Eluent: 15 mM perchloric acid-7% acetonitrile • pH adjuster: 15 mM perchloric acid-60 mM • tris(hydroxymethyl)aminomethane-7% acetonitrile • Separation column: Organic acid analysis column RSpak KC- • 811×2 (manufactured by Showa Denko K.K.) • Column temperature: 42° C. • Injected sample volume: 10 μL • Flow rate: 1.0 mL/min • Analysis time: 35 min • Detector: Waters 432 electric conductivity detector • Cell temperature: 45° C.
The amount of butyrate produced was calculated according to (Expression 1). Amount of butyrate produced=(Amount of butyrate produced by culture for 24 hours in a PYSA or PYXA medium)−(Amount of butyrate produced by culture for 24 hours in a PYA medium) (Expression 1)

[5] = Biochemical properties: saccharide fermentability (API-ZYM, Rapid ID32A API, API KENKI 20A); design: key: +: positive reaction; −: negative reaction; +^w: weak reaction
Text: (§2) Commercially available API-ZYM, Rapid ID32A API, and API KENKI 20A (SYSMEX bioMerieux Co., Ltd.) were used in the testing of biochemical properties of various bacterial strains. The testing method followed the product manuals.

[6] = Biochemical properties: enzymatic activity (API-ZYM, Rapid ID32A API, API KENKI 20A); design: key: +: positive reaction; −: negative reaction; +^w: weak reaction
Text: as §2

Q: What does the source list for OC[C@@H](O)[C@@H](O[C@@H]1O[C@H](CO)[C@H](O)[C@H](O)[C@H]1O)[C@H](O)[C@@H](O)CO [—/LAC group, lactitol]?
A: Total cell count (mouse C57BL/6J [1]; Cecal contents): 11.1 ± 0.1 log10 cells/g contents; Cell count, A. hadrus (mouse C57BL/6J [1]; Cecal contents): 7.2 log10 cells/g contents; Occupancy (mouse C57BL/6J [1]; Cecal contents): 0.014%; Detected count (mouse C57BL/6J [1]; Cecal contents): (1/5); Total cell count (mouse C57BL/6J [1]; Colonic contents): 11.1 ± 0.1 log10 cells/g contents; Occupancy (mouse C57BL/6J [1]; Colonic contents): 0.000%; Detected count (mouse C57BL/6J [1]; Colonic contents): (0/5)

Q: Which Total cell count (mouse C57BL/6J [2]; DAPI counting method) does the source give for OC[C@@H](O)[C@@H](O[C@H]1O[C@H](CO)[C@@H](O)[C@H](O)[C@H]1O)[C@H](O)[C@@H](O)CO [—/MAL group, maltitol] here?
A: Its Total cell count is 10.9 ± 0.1 log10 (cells/g contents).

Q: And the “Cell count, A. hadrus YIT 12355” value (mouse C57BL/6J [2]; quantitative PCR)?
A: Its value is <6.0 log10 (cells/g contents).

Q: What about the Occupancy (mouse C57BL/6J [2]; ratio to total cell count) of the same compound?
A: Its Occupancy is 0.0%.

Q: And the Total cell count (mouse C57BL/6J [1]; Cecal contents)?
A: The Total cell count was 11.0 ± 0.1 log10 cells/g contents.

Q: And the “Cell count, A. hadrus” value (mouse C57BL/6J [1]; Cecal contents)?
A: Its value is 6.1 log10 cells/g contents.

Q: What about the Occupancy (mouse C57BL/6J [1]; Cecal contents) of the same compound?
A: Its Occupancy is 0.001%.

Q: And the Detected count (mouse C57BL/6J [1]; Cecal contents)?
A: Its Detected count is “(1/5)”.

Q: And the Total cell count (mouse C57BL/6J [1]; Colonic contents)?
A: Its Total cell count is 11.0 ± 0.1 log10 cells/g contents.

Q: And the Occupancy (mouse C57BL/6J [1]; Colonic contents)?
A: Its Occupancy is 0.000%.

Q: What about the Detected count (mouse C57BL/6J [1]; Colonic contents) of the same compound?
A: Its Detected count is “(0/5)”.

Q: Which results are given for “Anaerostipes hadrus (Eubacterium hadrum) YIT 10092^T (DSM 3319^T) [reference compound]”?
A: Turbidity (OD660) ([3]; after anaerobic culture at 37° C. for 24 hours in PYGA liquid medium): 2.80; Turbidity (OD660) ([3]; anaerobic culture at 37° C. for 24 hours of 1% inoculum in PYSA (L-sorbose)): 2.56; Turbidity (OD660) ([3]; anaerobic culture at 37° C. for 24 hours of 1% inoculum in PYXA (D-xylitol)): 0.11; Amount of butyrate produced ([4]; D-Xylitol 0.5 (w/v) %, PYXA medium): -0.1 mmol/L; Amount of butyrate produced ([4]; L-Sorbose 0.5 (w/v) %, PYSA medium): 9.7 mmol/L; Aesculin [5]: −; D-Cellobiose [5]: +; D-Mannitol [5]: +; D-Raffinose [5]: −; D-Xylose [5]: +; Glycerol [5]: −; L-Arabinose [5]: +; L-Rhamnose [5]: −; L-Sorbitol [5]: +; Mallose [5]: +^w; Salicin [5]: +; Acid phosphatase [6]: +; Alkaline phosphatase [6]: −; Esterase (C4) [6]: +; Naphthol-AS-B1-phosphohydrolase [6]: +; α-Glucosidase [6]: −; β-Galactosidase [6]: +; β-Galactosidase-6-phosphate [6]: +

— patent publication US10293004B2, “Butyrate-producing bacterium and use thereof” (KABUSHIKI KAISHA YAKULT HONSHA, priority 2014, dated 2019)
